Assay results published in patent US6472389B1, “Pyrrolo[1,2-b] pyridazine derivatives having sPLA2 inhibitory effect” (Shionogi & Co., Ltd., priority 1998, dated 2002).
pIC50: −log10 of the molar value.

Legend:
[1] = target: T1, recombinant human secretory phospholipase A2 (Homo sapiens, UniProt P14555); assay: Inhibition test of human secretory phospholipase A2 (chromogenic assay, 96 well microtiterplate); type: biochemical; conditions: sPLA2 50 ng/well, 40° C., 30 minutes, OD 405 nm, substrate 1,2-bis(heptanoylthio)-1,2-dideoxy-sn-glycero-3-phospholylcholine
T1 sequence (P14555 21-144): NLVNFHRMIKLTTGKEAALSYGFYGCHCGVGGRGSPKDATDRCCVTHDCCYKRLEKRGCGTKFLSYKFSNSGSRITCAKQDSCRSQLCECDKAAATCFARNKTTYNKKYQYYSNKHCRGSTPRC
Text: Inhibition Test of Human Secretory Phospholipase A2
In order to identify and evaluate an inhibitor of recombinant human secretory phospholipase A2, the following chromogenic assay is utilized. The assay herein has been applied for high volume screening wherein 96 well microtiterplate is used. A general explanation for such assay is described in “Analysis of Human Synovial Fluid Phospholipase A2 on Short Chain Phosphatidylcholine-Mixed Micelles: Development of a Spectrophotometric Assay Suitable for a Micortiterplate Reader” (Analytical Biochemistry, 204, pp 190-197, 1992 by Laure. J. Reynolds. Lori L. Hughes and Edward A. Dennis: the disclosure of which is incorporated herein for reference.
Bovine Serum Albumin (fatty acid free) (1 g/L) (Sigma A-7030)
pH 7.5 (adjusted with NaOH)
pH 4.5 (adjusted with acetic acid)
1 mg of sPLA2 is dissolved in 1 ml of an enzyme buffer. Thereafter, the solution is maintained at 4° C.
In the assay, 5 μl of the solution is diluted with 1995 μl of the reaction buffer to be used.
198 mg of 5,5′-dithiobis-2-[…] (manufactured by Wako Pure Chemicals) is dissolved in 100 ml of H2O
100 mg of racemic 1,2-bis(heptanoylthio)-1,2-dideoxy-sn-glycero-3-phospholylcholine is dissolved in 1 ml of chloroform.
624.9 mg of Triton-X 100 is dissolved in the reaction buffer.
Enzyme Reaction: for 1 plate of Microtiterplate
1) 0.106 ml of the substrate solution is put in a centrifugal tube, and nitrogen gas is jetted to remove the solvent. 0.54 ml of Triton-X 100 is added thereto, the mixture is stirred, thereafter it is sonified in a bath type sonification to dissolve. To the resulting product are added 17.8 m1l of the reaction buffer and 0.46 ml of DTNB, and 0.18 ml each of the admixture is poured to wells of the 96 well microtiterplate.
2) 10 μl of a test compound (or solvent blank) are added in accordance with alignment of plates which has been previously set.
3) Incubation is effected at 40° C. for 15 minutes.
4) 20 μl of an enzyme solution (sPLA2) which has been previously diluted (50 ng/well) are added to start reaction (40° C., 30 minutes).
5) Changes in absorbancy for 30 minutes are measured by a plate reader, and inhibition activity was calculated (OD: 405 nm).
6) IC50 was determined by plotting log concentration with respect to inhibition values within 10% to 90% inhibiting range.

| Compound | pIC50 [1] | melting point |
| --- | --- | --- |
| CCc1c(C(=O)C(N)=O)c2c(OCC(=O)OC)ccnn2c1Cc1ccccc1 [Compound I-1, Methyl (5-aminooxalyl-7-benzyl-6-ethylpyrrolo[1,2-b]pyridazine-4-yloxy)acetate] | 6.61 | 210 to 212 °C |
| CCc1c(C(=O)C(N)=O)c2c(OCC(=O)OC)cc(C)nn2c1Cc1ccccc1 [Compound I-4, Methyl (5-aminooxalyl-7-benzyl-6-ethyl-2-methylpyrrolo[1,2-b]pyridazine-4-yloxy)acetate] | 6.82 | 225 to 226 °C |
| CCc1c(C(=O)C(N)=O)c2c(OCC(=O)OC)cc(COc3ccccc3)nn2c1Cc1ccccc1 [Compound I-6, Methyl (5-aminooxalyl-7-benzyl-6-ethyl-2-phenoxymethylpyrrolo[1,2-b]pyridazine-4-yloxy)acetate] | 6.62 | 185 to 186 °C |
| CCc1c(C(=O)C(N)=O)c2c(OCC(=O)OC)cc(COc3ccc(F)cc3)nn2c1Cc1ccccc1 [Compound I-7] | 6.65 | 178 to 179 °C |
| CCc1cc(OCC(=O)OC)c2c(C(=O)C(N)=O)c(CC)c(Cc3ccccc3)n2n1 [Compound I-8] | 6.74 | 183 to 185 °C |
| CCCc1cc(OCC(=O)OC)c2c(C(=O)C(N)=O)c(CC)c(Cc3ccccc3)n2n1 [Compound I-9] | 6.78 | 204 to 206 °C |
| CCc1c(C(=O)C(N)=O)c2c(OCC(=O)OC)cc(C(C)C)nn2c1Cc1ccccc1 [Compound I-10] | 6.53 | 174 to 175 °C |
| CCc1c(C(=O)C(N)=O)c2c(OCC(=O)OC)cc(-c3ccccc3)nn2c1Cc1ccccc1 [Compound I-11] | 7.17 | 236 to 239 °C |
| CCc1c(C(=O)C(N)=O)c2c(OCC(=O)OC)cc(C)nn2c1Cc1ccc(F)cc1 [Compound I-12] | 6.13 | 252 to 254 °C |
| CCc1c(C(=O)C(N)=O)c2c(OCC(=O)OC)cc(-c3ccccc3)nn2c1Cc1ccc(F)cc1 [Compound I-13] | 6.62 | 253 to 255 °C |
| CCc1c(C(=O)C(N)=O)c2c(OCC(=O)OC)cc(C(F)(F)F)nn2c1Cc1ccc(F)cc1 [Compound I-14] | 6.05 | 200 to 202 °C |
| CCc1c(C(=O)C(N)=O)c2c(OCC(=O)OC)cc(-c3ccccc3)nn2c1Cc1ccccc1F [Compound I-15] | 7.01 | 244 to 246 °C |
| COC(=O)COc1cc(C)nn2c(Cc3ccccc3)c(C)c(C(=O)C(N)=O)c12 [Compound I-26] | 6.75 | 163 to 165 °C |
| CCc1c(C(=O)C(N)=O)c2c(OCC(=O)OC)cc(CSc3ccccc3)nn2c1Cc1ccccc1 [Compound I-27] | 6.90 | 189 to 192 °C |
| CCc1c(C(=O)C(N)=O)c2c(OCC(=O)OCc3ccccc3)cc(CN3CCCC3)nn2c1Cc1ccccc1 [Compound I-29] | 5.82 | 185 to 186 °C |
| CCc1c(C(=O)C(N)=O)c2c(OCC(=O)OCc3ccccc3)cc(CN3CCOCC3)nn2c1Cc1ccccc1 [Compound I-30] | 5.34 | 183 to 184 °C |
| CCc1c(C(=O)C(N)=O)c2c(OCC(=O)OCc3ccccc3)cc(CN3CCN(C)CC3)nn2c1Cc1ccccc1 [Compound I-31] | 4.81 | 202 to 203 °C |
| CCc1c(C(=O)C(N)=O)c2c(OCC(=O)OC)cc(-c3ccc(F)cc3)nn2c1Cc1ccc(F)cc1 [Compound I-32] | 6.62 | 274 to 276 °C (dec.) |
| CCc1c(C(=O)C(N)=O)c2c(OCC(=O)OC)cc(-c3ccc(F)cc3)nn2c1Cc1ccccc1 [Compound I-33] | 7.14 | 249 to 253 °C (dec.) |
| CCc1c(C(=O)C(N)=O)c2c(OCC(=O)OC)cc(C)nn2c1Cc1ccccc1-c1ccccc1 [Compound I-35] | 6.95 | 187 to 189 °C |
| CCc1c(C(=O)C(N)=O)c2c(OCC(=O)OC)cc(C)nn2c1Cc1cccc(Oc2ccccc2)c1 [Compound I-36] | 6.99 | 201 to 202 °C |
| CCc1c(C(=O)C(N)=O)c2c(OCC(=O)OC)cc(C3CCCCC3)nn2c1Cc1ccccc1 [Compound I-37] | 6.67 | 207 to 209 °C (dec.) |
| CCc1c(C(=O)C(N)=O)c2c(OCC(=O)OC)cc(C3CCCC3)nn2c1Cc1ccccc1 [Compound I-38] | 6.64 | 160 to 162 °C (dec.) |
| CCc1c(C(=O)C(N)=O)c2c(OCC(=O)OC)cc(-c3ccc4c(c3)OCO4)nn2c1Cc1ccccc1 [Compound I-39] | 7.10 | 245 to 247 °C (dec.) |
| CCc1cc(OCC(=O)OC)c2c(C(=O)C(N)=O)c(C)c(Cc3ccccc3)n2n1 [Compound I-40] | 7.00 | 194 to 196 °C |
| COC(=O)COc1cc(CSC)nn2c(Cc3ccccc3)c(C)c(C(=O)C(N)=O)c12 [Compound I-43] | 6.81 | 210 to 211 °C |
| COCc1cc(OCC(=O)OC)c2c(C(=O)C(N)=O)c(C)c(Cc3ccccc3)n2n1 [Compound I-44] | 6.50 | 228 to 229 °C (dec.) |

Now those with a higher pIC50 [1], led by results:

| pIC50 [1] | melting point | Compound |
| --- | --- | --- |
| 8.05 |  | CCc1c(C(=O)C(N)=O)c2c(OCC(=O)O)ccnn2c1Cc1ccccc1 [Compound I-2, (5-aminooxalyl-7-benzyl-6-ethylpyrrolo[1,2-b]pyridazine-4-yloxy)acetic acid] |
| 7.89 |  | CCc1c(C(=O)C(N)=O)c2c(OCC(=O)O)ccnn2c1Cc1ccccc1 [Compound I-3, Sodium (5-aminooxalyl-7-benzyl-6-ethylpyrrolo[1,2-b]pyridazine-4-yloxy)acetate] |
| 7.96 |  | CCc1c(C(=O)C(N)=O)c2c(OCC(=O)O)cc(C)nn2c1Cc1ccccc1 [Compound I-5, (5-aminooxalyl-7-benzyl-6-ethyl-2-methylpyrrolo[1,2-b]pyridazine-4-yloxy)acetic acid] |
| 7.92 | 271 to 272 °C (dec.) | Cc1cc(OCC(=O)O)c2c(C(=O)C(N)=O)c(C)c(Cc3ccccc3)n2n1 [Compound I-16] |
| 8.15 | 253 to 254 °C (dec.) | Cc1c(C(=O)C(N)=O)c2c(OCC(=O)O)cc(-c3ccccc3)nn2c1Cc1ccccc1 [Compound I-17] |
| 8.00 | 223 to 225 °C (dec.) | CCc1cc(OCC(=O)O)c2c(C(=O)C(N)=O)c(CC)c(Cc3ccccc3)n2n1 [Compound I-18] |
| 8.00 | 231 to 233 °C (dec.) | CCCc1cc(OCC(=O)O)c2c(C(=O)C(N)=O)c(CC)c(Cc3ccccc3)n2n1 [Compound I-19] |
| 7.72 | 234 to 236 °C (dec.) | CCc1c(C(=O)C(N)=O)c2c(OCC(=O)O)cc(C(C)C)nn2c1Cc1ccccc1 [Compound I-20] |
| 8.22 | 244 to 246 °C (dec.) | CCc1c(C(=O)C(N)=O)c2c(OCC(=O)O)cc(-c3ccccc3)nn2c1Cc1ccccc1 [Compound I-21] |
| 7.66 | 238 to 240 °C | CCc1c(C(=O)C(N)=O)c2c(OCC(=O)O)cc(C)nn2c1Cc1ccc(F)cc1 [Compound I-22] |
| 8.15 | 250 to 252 °C | CCc1c(C(=O)C(N)=O)c2c(OCC(=O)O)cc(-c3ccccc3)nn2c1Cc1ccc(F)cc1 [Compound I-23] |
| 7.68 | 248 to 250 °C | CCc1c(C(=O)C(N)=O)c2c(OCC(=O)O)cc(C(F)(F)F)nn2c1Cc1ccc(F)cc1 [Compound I-24] |
| 8.22 | 252 to 254 °C | CCc1c(C(=O)C(N)=O)c2c(OCC(=O)O)cc(-c3ccccc3)nn2c1Cc1ccccc1F [Compound I-25] |
| 7.24 | 215 to 217 °C (dec.) | CCc1c(C(=O)C(N)=O)c2c(OCC(=O)OC)cc(-c3ccc(OC)cc3)nn2c1Cc1ccccc1 [Compound I-34] |
| 7.19 | 210 to 211 °C | CCCc1cc(OCC(=O)OC)c2c(C(=O)C(N)=O)c(C)c(Cc3ccccc3)n2n1 [Compound I-41] |
| 7.59 | 204 to 206 °C | COC(=O)COc1cc(Cc2ccccc2)nn2c(Cc3ccccc3)c(C)c(C(=O)C(N)=O)c12 [Compound I-42] |
